Results: patent US10815230B2, “Casein kinase 1 delta inhibitor” (ELECTROPHORETICS LIMITED, priority 2015, dated 2020)

How the values were obtained:
Experiment in all cases: KINOMEscan binding assay
Conditions in all cases: read-out: % Ctrl @ 10000 nM
[1] = target: ABL1 (F317I) phosphorylated (Homo sapiens, UniProt P00519, F317I)
ACVR1B = ACVR1B (Homo sapiens, UniProt P36896)
BMX = BMX (Homo sapiens, UniProt P51813)
CAMK2G = CAMK2G (Homo sapiens, UniProt Q13555)
CDC2L2 = CDC2L2 (Homo sapiens, UniProt Q9UQ88)
CLK4 = CLK4 (Homo sapiens, UniProt Q9HAZ1)
Sequence of CLK4 (Q9HAZ1 whole entry): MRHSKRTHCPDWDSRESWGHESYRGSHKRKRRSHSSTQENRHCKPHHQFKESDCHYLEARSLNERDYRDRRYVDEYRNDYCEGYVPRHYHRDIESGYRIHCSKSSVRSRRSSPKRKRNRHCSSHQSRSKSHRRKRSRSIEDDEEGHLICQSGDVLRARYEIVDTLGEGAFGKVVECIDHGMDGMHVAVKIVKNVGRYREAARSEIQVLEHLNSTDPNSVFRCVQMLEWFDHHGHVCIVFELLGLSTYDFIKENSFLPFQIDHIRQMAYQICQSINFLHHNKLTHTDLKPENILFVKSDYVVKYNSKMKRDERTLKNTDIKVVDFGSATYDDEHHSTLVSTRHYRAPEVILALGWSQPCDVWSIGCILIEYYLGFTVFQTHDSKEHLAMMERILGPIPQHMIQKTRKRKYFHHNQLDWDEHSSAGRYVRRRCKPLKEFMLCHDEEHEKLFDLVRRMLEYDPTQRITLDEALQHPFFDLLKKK

CSNK1A1 = CSNK1A1 (Homo sapiens, UniProt P48729)
CSNK1G2 = CSNK1G2 (Homo sapiens, UniProt P78368)
DCAMKL3 = DCAMKL3 (Homo sapiens, UniProt Q9C098)
DMPK = DMPK (Homo sapiens, UniProt Q09013)
ERK8 = ERK8 (Homo sapiens, UniProt Q8TD08)
FER = FER (Homo sapiens, UniProt P16591)
FES = FES (Homo sapiens, UniProt P07332)
FGFR2 = FGFR2 (Homo sapiens, UniProt P21802)
FLT3 (R834Q) = FLT3 (R834Q) (Homo sapiens, UniProt P36888, R834Q)
ITK = ITK (Homo sapiens, UniProt Q08881)
KIT (A829P) = KIT (A829P) (Homo sapiens, UniProt P10721, A829P)
Sequence of KIT (A829P) (P10721 26-976 A829P): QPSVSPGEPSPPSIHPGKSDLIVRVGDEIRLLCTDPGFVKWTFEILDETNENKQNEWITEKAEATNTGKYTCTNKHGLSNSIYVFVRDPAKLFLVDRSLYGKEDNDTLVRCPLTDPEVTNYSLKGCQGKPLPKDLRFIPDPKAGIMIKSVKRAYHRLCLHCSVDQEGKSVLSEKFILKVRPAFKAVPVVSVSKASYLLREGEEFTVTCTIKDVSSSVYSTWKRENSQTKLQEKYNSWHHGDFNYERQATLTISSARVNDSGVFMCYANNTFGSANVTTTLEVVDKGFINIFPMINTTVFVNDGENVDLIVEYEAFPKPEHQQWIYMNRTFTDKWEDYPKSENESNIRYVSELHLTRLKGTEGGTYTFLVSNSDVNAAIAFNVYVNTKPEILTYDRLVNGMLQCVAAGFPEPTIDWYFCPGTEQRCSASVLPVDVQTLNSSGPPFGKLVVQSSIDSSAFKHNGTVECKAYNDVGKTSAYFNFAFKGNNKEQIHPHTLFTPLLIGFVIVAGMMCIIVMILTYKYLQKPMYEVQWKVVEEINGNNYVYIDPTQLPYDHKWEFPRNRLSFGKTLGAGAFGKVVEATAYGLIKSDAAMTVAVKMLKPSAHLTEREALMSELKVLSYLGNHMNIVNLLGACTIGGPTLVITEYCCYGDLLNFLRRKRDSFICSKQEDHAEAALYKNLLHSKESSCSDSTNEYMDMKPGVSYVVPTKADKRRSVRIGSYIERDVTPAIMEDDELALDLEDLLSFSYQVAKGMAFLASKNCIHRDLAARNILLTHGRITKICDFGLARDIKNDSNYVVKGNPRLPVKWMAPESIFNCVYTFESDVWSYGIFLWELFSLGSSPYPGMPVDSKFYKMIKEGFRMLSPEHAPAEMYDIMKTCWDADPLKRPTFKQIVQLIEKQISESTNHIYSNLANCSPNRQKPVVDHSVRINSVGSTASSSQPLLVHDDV

KIT (V559D, V654A) = KIT (V559D, V654A) (Homo sapiens, UniProt P10721, V559D/V654A)
Sequence of KIT (V559D, V654A) (P10721 26-976 V559D/V654A): as the sequence (P10721 26-976 A829P) above, with V534D, V629A, P804A counted along it

KIT-autoinhibited = KIT-autoinhibited (Homo sapiens, UniProt P10721)
LATS1 = LATS1 (Homo sapiens, UniProt O95835)
LATS2 = LATS2 (Homo sapiens, UniProt Q9NRM7)
MAP4K5 = target: T1, MAP4K5 (Homo sapiens, UniProt Q9Y4K4)
T1 construct: T7 phage fusion (most assays) or DNA label after HEK293 expression; purchased DiscoveRx (KINOMEscan, LeadHunter Discovery services); host or cells: T7 phage in E. coli (BL21-derived) or HEK293
T1 sequence (Q9Y4K4 whole entry, the tested form may be a part): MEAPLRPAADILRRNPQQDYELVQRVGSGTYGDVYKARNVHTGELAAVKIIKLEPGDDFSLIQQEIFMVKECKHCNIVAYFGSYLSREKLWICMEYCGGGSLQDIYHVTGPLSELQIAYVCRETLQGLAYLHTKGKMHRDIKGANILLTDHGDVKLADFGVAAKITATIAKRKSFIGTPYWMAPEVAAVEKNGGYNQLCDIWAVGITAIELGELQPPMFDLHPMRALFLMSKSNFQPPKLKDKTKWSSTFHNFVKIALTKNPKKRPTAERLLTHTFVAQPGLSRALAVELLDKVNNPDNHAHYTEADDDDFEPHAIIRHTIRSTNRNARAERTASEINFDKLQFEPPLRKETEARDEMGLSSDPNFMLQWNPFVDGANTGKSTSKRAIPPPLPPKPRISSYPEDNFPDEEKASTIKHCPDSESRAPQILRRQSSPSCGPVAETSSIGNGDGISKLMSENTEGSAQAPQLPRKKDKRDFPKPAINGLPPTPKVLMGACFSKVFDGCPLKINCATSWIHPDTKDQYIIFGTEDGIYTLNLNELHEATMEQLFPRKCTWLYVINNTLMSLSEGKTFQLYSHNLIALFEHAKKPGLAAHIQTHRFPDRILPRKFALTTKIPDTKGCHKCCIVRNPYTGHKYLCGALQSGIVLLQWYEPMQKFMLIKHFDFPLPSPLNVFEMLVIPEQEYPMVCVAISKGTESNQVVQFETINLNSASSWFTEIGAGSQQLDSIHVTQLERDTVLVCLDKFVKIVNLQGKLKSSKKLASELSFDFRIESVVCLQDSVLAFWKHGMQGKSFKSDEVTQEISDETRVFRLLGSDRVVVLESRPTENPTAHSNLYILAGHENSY

MAST1 = MAST1 (Homo sapiens, UniProt Q9Y2H9)
MEK4 = MEK4 (Homo sapiens, UniProt P45985)
NDR1 = NDR1 (Homo sapiens, UniProt Q15208)
p38-beta = p38-beta (Homo sapiens, UniProt Q15759)
PAK4 = PAK4 (Homo sapiens, UniProt O96013)
PIK3C2G = PIK3C2G (Homo sapiens, UniProt O75747)
PIK3CA (M1043I) = PIK3CA (M1043I) (Homo sapiens, UniProt P42336, M1043I)
PIM2 = PIM2 (Homo sapiens, UniProt Q9P1W9)
PKMYT1 = PKMYT1 (Homo sapiens, UniProt Q99640)
PKN2 = PKN2 (Homo sapiens, UniProt Q16513)
PRKG2 = PRKG2 (Homo sapiens, UniProt Q13237)
RET (M918T) = RET (M918T) (Homo sapiens, UniProt P07949, M918T)
ROCK1 = ROCK1 (Homo sapiens, UniProt Q13464)
SIK = SIK (Homo sapiens, UniProt P57059)
Sequence of SIK (P57059 whole entry): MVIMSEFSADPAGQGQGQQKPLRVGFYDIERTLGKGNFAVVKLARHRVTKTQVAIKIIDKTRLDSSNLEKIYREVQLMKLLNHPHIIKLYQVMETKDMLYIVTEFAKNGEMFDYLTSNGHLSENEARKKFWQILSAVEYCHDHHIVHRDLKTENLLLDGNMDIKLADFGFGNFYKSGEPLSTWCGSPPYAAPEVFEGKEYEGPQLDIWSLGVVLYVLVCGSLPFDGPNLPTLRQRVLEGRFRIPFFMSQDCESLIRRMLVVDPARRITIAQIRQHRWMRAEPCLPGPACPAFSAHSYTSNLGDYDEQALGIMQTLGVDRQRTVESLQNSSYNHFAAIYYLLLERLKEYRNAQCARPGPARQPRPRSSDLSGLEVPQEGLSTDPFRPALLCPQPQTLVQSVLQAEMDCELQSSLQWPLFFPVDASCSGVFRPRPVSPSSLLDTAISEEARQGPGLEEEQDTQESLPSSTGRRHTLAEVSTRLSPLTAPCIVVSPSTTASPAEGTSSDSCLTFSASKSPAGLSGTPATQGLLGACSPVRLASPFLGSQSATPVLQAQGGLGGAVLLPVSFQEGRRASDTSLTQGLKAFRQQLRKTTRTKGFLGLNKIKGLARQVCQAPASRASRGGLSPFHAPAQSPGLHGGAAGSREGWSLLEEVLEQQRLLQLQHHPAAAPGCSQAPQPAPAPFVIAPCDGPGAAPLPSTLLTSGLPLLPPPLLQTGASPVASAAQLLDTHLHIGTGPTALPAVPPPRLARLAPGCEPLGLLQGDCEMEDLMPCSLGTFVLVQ

SNRK = SNRK (Homo sapiens, UniProt Q9NRH2)
Sequence of SNRK (Q9NRH2 whole entry): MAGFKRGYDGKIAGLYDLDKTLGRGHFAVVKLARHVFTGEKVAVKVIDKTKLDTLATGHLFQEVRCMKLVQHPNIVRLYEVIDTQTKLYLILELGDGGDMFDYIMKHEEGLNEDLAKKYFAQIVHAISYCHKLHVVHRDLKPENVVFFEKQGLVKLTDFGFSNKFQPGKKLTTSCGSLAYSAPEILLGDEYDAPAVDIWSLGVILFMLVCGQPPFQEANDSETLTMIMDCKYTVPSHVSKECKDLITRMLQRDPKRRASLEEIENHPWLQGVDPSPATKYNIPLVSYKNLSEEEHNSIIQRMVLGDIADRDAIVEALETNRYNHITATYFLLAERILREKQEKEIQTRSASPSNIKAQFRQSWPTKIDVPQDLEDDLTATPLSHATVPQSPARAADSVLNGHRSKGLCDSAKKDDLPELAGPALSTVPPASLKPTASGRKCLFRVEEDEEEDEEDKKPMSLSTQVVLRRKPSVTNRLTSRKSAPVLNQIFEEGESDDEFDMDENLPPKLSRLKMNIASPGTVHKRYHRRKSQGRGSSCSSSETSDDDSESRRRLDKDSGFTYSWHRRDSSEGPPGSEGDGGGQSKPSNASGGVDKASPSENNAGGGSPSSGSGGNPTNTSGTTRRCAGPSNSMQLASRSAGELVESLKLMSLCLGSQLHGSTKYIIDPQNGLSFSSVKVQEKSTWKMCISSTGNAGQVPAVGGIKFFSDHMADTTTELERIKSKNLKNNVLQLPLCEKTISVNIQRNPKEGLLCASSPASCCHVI

STK36 = STK36 (Homo sapiens, UniProt Q9NRP7)
SYK = SYK (Homo sapiens, UniProt P43405)
TLK1 = TLK1 (Homo sapiens, UniProt Q9UKI8)
TLK2 = TLK2 (Homo sapiens, UniProt Q86UE8)
TNK1 = TNK1 (Homo sapiens, UniProt Q13470)

Sequence of ACVR1B (P36896 24-505): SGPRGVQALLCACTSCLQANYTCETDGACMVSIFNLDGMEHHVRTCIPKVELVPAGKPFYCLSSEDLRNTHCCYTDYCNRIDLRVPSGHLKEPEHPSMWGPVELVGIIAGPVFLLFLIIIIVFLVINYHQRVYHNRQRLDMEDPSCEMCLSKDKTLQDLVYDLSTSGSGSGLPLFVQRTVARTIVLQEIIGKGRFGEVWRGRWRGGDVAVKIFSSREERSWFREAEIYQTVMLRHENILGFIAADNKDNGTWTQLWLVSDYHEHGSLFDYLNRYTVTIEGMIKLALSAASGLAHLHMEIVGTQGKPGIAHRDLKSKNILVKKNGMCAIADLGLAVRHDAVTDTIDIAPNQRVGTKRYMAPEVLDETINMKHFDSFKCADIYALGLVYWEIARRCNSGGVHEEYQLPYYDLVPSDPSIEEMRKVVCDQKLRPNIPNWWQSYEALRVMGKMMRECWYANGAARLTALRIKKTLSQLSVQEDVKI
Sequence of BMX (P51813 whole entry): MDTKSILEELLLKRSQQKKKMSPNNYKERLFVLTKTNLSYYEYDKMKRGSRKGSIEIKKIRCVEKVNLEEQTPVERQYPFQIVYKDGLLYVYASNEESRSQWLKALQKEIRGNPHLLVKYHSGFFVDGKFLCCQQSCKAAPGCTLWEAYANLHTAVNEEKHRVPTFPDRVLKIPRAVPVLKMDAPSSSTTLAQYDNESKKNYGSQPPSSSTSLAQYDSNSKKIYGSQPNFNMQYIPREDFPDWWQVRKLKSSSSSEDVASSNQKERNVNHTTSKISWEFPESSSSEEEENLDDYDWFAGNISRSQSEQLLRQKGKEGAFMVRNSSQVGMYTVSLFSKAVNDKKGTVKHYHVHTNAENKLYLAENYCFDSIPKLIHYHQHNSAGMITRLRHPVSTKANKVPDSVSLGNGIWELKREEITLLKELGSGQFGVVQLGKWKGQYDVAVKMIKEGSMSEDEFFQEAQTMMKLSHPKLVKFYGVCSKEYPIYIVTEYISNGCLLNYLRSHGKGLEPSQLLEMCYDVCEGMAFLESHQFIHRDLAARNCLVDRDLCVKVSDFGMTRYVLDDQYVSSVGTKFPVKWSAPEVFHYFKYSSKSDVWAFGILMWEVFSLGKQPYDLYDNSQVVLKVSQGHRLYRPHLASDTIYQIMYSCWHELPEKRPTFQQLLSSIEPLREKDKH

For `Nc1ncc(-c2nc3ccccc3o2)c(-c2ccncc2)n1` [Comparative Compound 324, 5-(1,3-benzoxazol-2-yl)-4-(pyridine-4-yl)pyrimidin-2-amine], the remaining binding at 10 µM [1] was 100%, the remaining binding at 10 µM (ACVR1B) was 100% and the remaining binding at 10 µM (BMX) was 100%. The remaining binding at 10 µM (CAMK2G) was 100%, the remaining binding at 10 µM (CDC2L2) was 100% and the remaining binding at 10 µM (CLK4) was 83%. It also gave a remaining binding at 10 µM (CSNK1A1) of 4.2%, a remaining binding at 10 µM (CSNK1G2) of 72% and a remaining binding at 10 µM (DCAMKL3) of 100%. For the same compound, the remaining binding at 10 µM (DMPK) was 100%, the remaining binding at 10 µM (ERK8) was 99% and the remaining binding at 10 µM (FER) was 100%. The remaining binding at 10 µM (FES) was 78%, the remaining binding at 10 µM (FGFR2) was 63% and the remaining binding at 10 µM (FLT3 (R834Q)) was 97%. It also gave a remaining binding at 10 µM (ITK) of 86%, a remaining binding at 10 µM (KIT (A829P)) of 79% and a remaining binding at 10 µM (KIT (V559D, V654A)) of 79%. For the same compound, the remaining binding at 10 µM (KIT-autoinhibited) was 88%, the remaining binding at 10 µM (LATS1) was 100% and the remaining binding at 10 µM (LATS2) was 82%. The remaining binding at 10 µM (MAP4K5) was 88%, the remaining binding at 10 µM (MAST1) was 86% and the remaining binding at 10 µM (MEK4) was 70%. For the same compound, the remaining binding at 10 µM (NDR1) was 73%, the remaining binding at 10 µM (p38-beta) was 100% and the remaining binding at 10 µM (PAK4) was 98%. For the same compound, the remaining binding at 10 µM (PIK3C2G) was 99%, the remaining binding at 10 µM (PIK3CA (M1043I)) was 100% and the remaining binding at 10 µM (PIM2) was 98%. It also gave a remaining binding at 10 µM (PKMYT1) of 100%, a remaining binding at 10 µM (PKN2) of 94% and a remaining binding at 10 µM (PRKG2) of 82%. For the same compound, the remaining binding at 10 µM (RET (M918T)) was 88%, the remaining binding at 10 µM (ROCK1) was 96% and the remaining binding at 10 µM (SIK) was 100%. The remaining binding at 10 µM (SNRK) was 65%, the remaining binding at 10 µM (STK36) was 96% and the remaining binding at 10 µM (SYK) was 100%. It also gave a remaining binding at 10 µM (TLK1) of 96%, a remaining binding at 10 µM (TLK2) of 100% and a remaining binding at 10 µM (TNK1) of 97%.

`CNc1c(C(N)=O)c2ccccn2c1C(=O)c1ccc(F)cc1` [Compound A, 2-methyl-amino-3-[(4-fluorophenyl)carbonyl]indolizine-1-carboxamide] showed a remaining binding at 10 µM [1] of 88%, a remaining binding at 10 µM (ACVR1B) of 100% and a remaining binding at 10 µM (BMX) of 91%. It also gave a remaining binding at 10 µM (CAMK2G) of 87%, a remaining binding at 10 µM (CDC2L2) of 91% and a remaining binding at 10 µM (CLK4) of 76%. It also gave a remaining binding at 10 µM (CSNK1A1) of 0.95%, a remaining binding at 10 µM (CSNK1G2) of 99% and a remaining binding at 10 µM (DCAMKL3) of 100%. For the same compound, the remaining binding at 10 µM (DMPK) was 100%, the remaining binding at 10 µM (ERK8) was 98% and the remaining binding at 10 µM (FER) was 98%. For the same compound, the remaining binding at 10 µM (FES) was 75%, the remaining binding at 10 µM (FGFR2) was 53% and the remaining binding at 10 µM (FLT3 (R834Q)) was 95%. It also gave a remaining binding at 10 µM (ITK) of 78%, a remaining binding at 10 µM (KIT (A829P)) of 86% and a remaining binding at 10 µM (KIT (V559D, V654A)) of 16%. The remaining binding at 10 µM (KIT-autoinhibited) was 78%, the remaining binding at 10 µM (LATS1) was 93% and the remaining binding at 10 µM (LATS2) was 72%. It also gave a remaining binding at 10 µM (MAP4K5) of 62%, a remaining binding at 10 µM (MAST1) of 75% and a remaining binding at 10 µM (MEK4) of 43%. For the same compound, the remaining binding at 10 µM (NDR1) was 74%, the remaining binding at 10 µM (p38-beta) was 100% and the remaining binding at 10 µM (PAK4) was 89%. For the same compound, the remaining binding at 10 µM (PIK3C2G) was 100%, the remaining binding at 10 µM (PIK3CA (M1043I)) was 100% and the remaining binding at 10 µM (PIM2) was 65%. For the same compound, the remaining binding at 10 µM (PKMYT1) was 52%, the remaining binding at 10 µM (PKN2) was 100% and the remaining binding at 10 µM (PRKG2) was 76%. It also gave a remaining binding at 10 µM (RET (M918T)) of 56%, a remaining binding at 10 µM (ROCK1) of 100% and a remaining binding at 10 µM (SIK) of 83%. The remaining binding at 10 µM (SNRK) was 66%, the remaining binding at 10 µM (STK36) was 69% and the remaining binding at 10 µM (SYK) was 86%. It also gave a remaining binding at 10 µM (TLK1) of 87%, a remaining binding at 10 µM (TLK2) of 94% and a remaining binding at 10 µM (TNK1) of 99%.
